Measured values as given in paper PMC6476273, “Engineering a Model Cell for Rational Tuning of GPCR Signaling” (Cell, 2019).
pEC50: −log10 of the molar value. Read-outs that look alike come from different tables or passages of the source. Ends that are not written are not given here.

Experiments:
human A2BR receptor [1] = target: T1, human A2BR receptor (Homo sapiens, UniProt P29275); assay: Adenosine dose-response, A2BR sensor strain, sfGFP by flow cytometry; assay type: cell-based; details: Fig S6C, wild-type Gpa1, triplicate isolates
T1 sequence (P29275 1-332): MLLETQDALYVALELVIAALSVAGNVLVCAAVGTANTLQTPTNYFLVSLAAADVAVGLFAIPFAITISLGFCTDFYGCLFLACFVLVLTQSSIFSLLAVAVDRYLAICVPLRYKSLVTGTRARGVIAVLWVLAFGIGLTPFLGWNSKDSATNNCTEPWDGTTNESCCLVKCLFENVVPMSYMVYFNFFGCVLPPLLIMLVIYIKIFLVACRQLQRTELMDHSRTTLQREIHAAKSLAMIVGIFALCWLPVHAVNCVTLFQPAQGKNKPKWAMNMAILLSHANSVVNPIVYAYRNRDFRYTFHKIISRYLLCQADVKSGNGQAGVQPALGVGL
T1 sequence (P08539 2-472 partner): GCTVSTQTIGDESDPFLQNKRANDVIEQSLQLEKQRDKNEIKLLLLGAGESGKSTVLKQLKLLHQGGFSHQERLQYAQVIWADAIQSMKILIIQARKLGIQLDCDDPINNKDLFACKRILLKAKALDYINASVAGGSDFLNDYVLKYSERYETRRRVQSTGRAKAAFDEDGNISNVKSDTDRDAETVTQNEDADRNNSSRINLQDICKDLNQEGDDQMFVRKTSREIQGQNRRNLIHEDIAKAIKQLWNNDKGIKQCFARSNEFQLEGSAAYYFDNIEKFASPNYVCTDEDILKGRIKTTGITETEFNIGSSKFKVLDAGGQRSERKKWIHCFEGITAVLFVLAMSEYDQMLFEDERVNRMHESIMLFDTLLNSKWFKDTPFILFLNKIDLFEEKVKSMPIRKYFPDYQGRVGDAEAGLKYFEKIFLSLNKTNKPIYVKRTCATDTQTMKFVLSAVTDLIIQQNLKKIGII

human A2BR receptor [2] = target: T1, human A2BR receptor; assay: Adenosine dose-response, A2BR single strain and three-strain consortium, sfGFP by plate reader; assay type: cell-based; details: for Hill slope: plate reader
human MTNR1A receptor [3] = target: T2, human MTNR1A receptor (Homo sapiens, UniProt P48039)
T2 sequence (P48039 whole entry, one chain of several): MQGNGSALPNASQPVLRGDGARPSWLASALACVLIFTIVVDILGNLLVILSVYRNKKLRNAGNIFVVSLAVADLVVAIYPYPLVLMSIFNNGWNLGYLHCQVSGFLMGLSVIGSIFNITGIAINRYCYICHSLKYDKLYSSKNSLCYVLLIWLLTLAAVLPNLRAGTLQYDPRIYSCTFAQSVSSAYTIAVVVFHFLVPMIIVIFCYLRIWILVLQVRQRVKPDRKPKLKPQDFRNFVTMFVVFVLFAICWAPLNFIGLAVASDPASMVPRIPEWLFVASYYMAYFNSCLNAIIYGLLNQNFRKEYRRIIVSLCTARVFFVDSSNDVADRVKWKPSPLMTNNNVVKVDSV

human MTNR1A receptor [4] = target: T2, human MTNR1A receptor; details: for Hill slope: plate reader
Mam2 receptor = target: T3, Mam2 receptor (Schizosaccharomyces pombe, UniProt Q00619); assay: P-factor dose-response, Mam2 sensor strain in yWS677, sfGFP by flow cytometry; assay type: cell-based
T3 construct: expressed in transfected cells; host or cells: Saccharomyces cerevisiae yWS677 (BY4741 derivative), chromosomally integrated YTK cassette
T3 sequence (Q00619 1-348): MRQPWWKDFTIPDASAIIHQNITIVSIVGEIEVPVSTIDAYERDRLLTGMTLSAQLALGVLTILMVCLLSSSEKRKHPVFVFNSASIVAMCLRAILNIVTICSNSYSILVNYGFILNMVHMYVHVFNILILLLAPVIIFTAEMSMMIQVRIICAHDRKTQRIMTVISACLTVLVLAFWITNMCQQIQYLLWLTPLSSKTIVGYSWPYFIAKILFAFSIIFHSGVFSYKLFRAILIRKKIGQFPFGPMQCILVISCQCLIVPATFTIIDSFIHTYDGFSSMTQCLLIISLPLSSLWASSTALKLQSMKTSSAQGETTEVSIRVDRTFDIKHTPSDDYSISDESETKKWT

[5] = test system: P. brasiliensis Ste2 homolog (PbSte2); assay: PbPeptide dose-response, PbSte2 sensor single cell and two-cell amplifier-receiver consortium, GFP by plate reader; assay type: cell-based, Paracoccidioides brasiliensis
Description: For pathogen detection, we next set out to tune a point-of-care sensor for Paracoccidioides brasiliensis, recently developed by [Ostrov et al. (2017)]. This yeast GPCR-based sensor, utilizing the Ste2 homolog from P. brasiliensis (PbSte2), detects environmental levels of pheromone peptide released by haploid P. brasiliensis cells (PbPeptide) as a means of specifically detecting this human pathogen in complex samples (Figure 6E). […] To optimize these two properties, we applied our amplifier-receiver two strain approach to the PbSte2 sensor (Figures 6F–6H).

[6] = test system: P. brasiliensis Ste2 homolog (PbSte2); details: PbSte2 in S. cerevisiae; ref Ostrov et al., 2017; cited from earlier work
Description: (D) The ... || For pathogen detection, we next set out to tune a point-of-care sensor for Paracoccidioides brasiliensis, recently developed by [Ostrov et al. (2017)]. This yeast GPCR-based sensor, utilizing the Ste2 homolog from P. brasiliensis (PbSte2), detects environmental levels of pheromone peptide released by haploid P. brasiliensis cells (PbPeptide) as a means of specifically detecting this human pathogen in complex samples (Figure 6E).

Ste2 = assay: α-factor dose-response of pheromone response pathway strains, sfGFP by flow cytometry; assay type: cell-based, Saccharomyces cerevisiae
[7] = three-strain consortium 1:1:1 vs initial response

Nc1ncnc2c1ncn2[C@@H]1O[C@H](CO)[C@@H](O)[C@H]1O [Adenosine]
Hill slope (human A2BR receptor [1]): 1.32 ± 0.08
Hill slope (human A2BR receptor [2]; Fig 5B, single pop.): 1.41 ± 0.10
operational range (human A2BR receptor [2]; Fig 5B, single pop., span between 5% and 95% of the activated response): 1.56 ± 0.07 orders of magnitude
operational range (human A2BR receptor [2]; Fig 5C legend, consortia of three engineered strains): 3.3 orders of magnitude
Hill slope (human A2BR receptor [2]; Fig 5C, mixed pop. of three strains 1:1:1): 0.78 ± 0.02
operational range (human A2BR receptor [2]; Fig 5C, mixed pop. of three strains 1:1:1, span between 5% and 95% of the activated response): 3.27 ± 0.08 orders of magnitude
change in Hill slope (human A2BR receptor [2]; [7]): almost halved the Hill slope
increase in operational range (human A2BR receptor [2]; [7]): 50 -fold

COc1ccc2[nH]cc(CCNC(C)=O)c2c1 [Melatonin]
Hill slope (human MTNR1A receptor [3]; Fig S6D, MTNR1A sensor strain, wild-type Gpa1, flow cytometry, triplicate isolates): 0.80 ± 0.04
linear range of dose-response (human MTNR1A receptor [3]; two-strain consortia, Fig 6B): four
operational range (human MTNR1A receptor [4]; Fig 5F legend, single population): 3.8 orders of magnitude
Hill slope (human MTNR1A receptor [4]; Fig 5F, single pop.): 0.69 ± 0.03
operational range (human MTNR1A receptor [4]; Fig 5F, single pop., span between 5% and 95% of the activated response): 3.79 ± 0.15 orders of magnitude
Hill slope (human MTNR1A receptor [4]; Fig 5G, mixed pop., tuned two-strain system 1:1): 1.65 ± 0.06
operational range (human MTNR1A receptor [4]; Fig 5G, mixed pop., two-strain system, span between 5% and 95% of the activated response): 1.48 ± 0.19 orders of magnitude

TYADFLRAYQSWNTFVNPDRPNL [P-factor]
pEC50 (Mam2 receptor; Fig 4D, Mam2 - yWS677, 4 h induction, 1 % DMSO, SC medium, 30°C, sfGFP flow cytometry, mean ± SD, triplicate isolates): 6.93
potency (EC50) compared with native S. pombe response (Mam2 receptor; Mam2 sensor strain vs S. pombe (Croft et al., 2013)): identical potency (EC50)

WCTRPGQGC [PbPeptide]
detection range ([5]; CCW12 promoter and signal amplification, two-strain consortia): picomolar range
narrowing of operational range ([5]; amplifier-receiver two strain consortia): 1,000 -fold
sensitivity [6]: nanomolar sensitivity

WHWLQLKPGQPMY [α-factor, S. cerevisiae peptide pheromone, ligand of Ste2]
activation at 100 pM ɑ-factor on Ste2 overexpression (Ste2; Design 4 strain with 2x and 3x Ste2 (pCCW12), Fig S4H): unchanged
sensitivity and signal output compared with BY4741 (Ste2; Quasi-WT strain, FUS1 promoter-sfGFP): substantial increase in sensitivity and signal output
sensitivity compared with Quasi-WT (Ste2; design 3 strain (Gpa1 by PGK1, Ste2 by pCCW12), Fig 4A-B): approached the sensitivity of the Quasi-WT strain
